Marks after values point to notes of the source that are not given here.
Tests used:
[1] = system: C3H10T1/2 cells; assay: Adipocyte differentiation suppressive action; type: cell-based; details: for cell number (number of nucleus/visual field) / lipid droplet area (lipid droplet stained area/cell number): DM, 9 days
Method: C3H10T1/2 cells (Dainippon Pharmaceutical Co., Ltd.) were cultured in a growth medium until confluence. 1 μM dexamethasone, 0.5 mM 3-isobutyl-1-methylxanthine and 5 μg/mL insulin were added to the medium, and the cells were cultured for 3 days. The medium was exchanged with a growth medium added with 4 μg/mL insulin and the cells were cultured for 3 more days and cultured in a growth medium for 3 days. When the compound was added, it was added for 9 days after reaching confluence and the cells were cultured. The cells were fixed with 3.7% formalin, lipid droplet was stained with 100 nM BODIPY 493/503 (Molecular Probes), nucleus was stained with 2 μM Hoechst33258 (Acros Organics), and analyzed by IN Cell analyzer (GE Healthcare). The data of Table 15 show mean±standard deviation at n=4 (n is the number of samples).

[2] = system: Male C57BL/6J mice on a high-fat diet; assay: Antiobesity, dyslipidemia and diabetes improving effect in mouse fed with high-fat diet; type: in vivo; parameters: plasma leptin (mg/dL): unit not given here; details: for epididymal fat mass / gastrocnemius muscle weight (g/100 g body weight) / hepatocyte weight / mesenteric fat mass: Day 38
Method: Male C57BL/6J mice (CLEA Japan, Inc.) were bred from 5-week-old on a high-fat diet (D12451, research diet) while allowing free ingestion of both feed and water to prepare obesity mice. The mice were bred for acclimation for 2 weeks from 21-week-old. The body weight and plasma markers were measured when 23-week-old, the mice were divided into 6 groups (6 per group) such that the values thereof were uniform, and Reference Example 1 (0.01-0.1 mg/kg) or Reference Example 7 (1-3 mg/kg) was orally administered for 5 weeks. After 14 and 28 days, plasma levels of total cholesterol, neutral lipid, glucose, insulin, leptin, adiponectin and glycated hemoglobin were measured. On the last day, the mice were autopsied, and weights of mesenteric fat, epididymal fat, liver and gastrocnemius muscle were measured. The data of Table 18 show mean±standard deviation at n=5-6 (n is the number of samples).

[3] = system: Female KKA^y mice; assay: Improvement of insulin resistance in KKA^y mouse (plasma glucose AUC after insulin); type: in vivo; details: 4 weeks, insulin 0.5 U/kg i.p.
Method: Female KKA^y mice (12-week-old, CLEA Japan, Inc.) were bred while allowing free ingestion of both feed and water. The mice were bred for acclimation with powder CE-2 (CLEA Japan, Inc.) from 2 weeks before administration of the compound. The body weight and plasma markers were measured and, at 14 weeks of age, they were divided into 4 groups (6 per group) such that the measured values were uniform. The compound of Reference Example 1 was administered for 4 weeks in a mixed feed (0.01-0.09 mg/kg/day). After fasting overnight, insulin was intraperitoneally administered at 0.5 U/kg and, after 30, 60 and 120 min, blood samples were collected.

Cc1ncccc1Oc1sc(C(N)=O)c2c1-c1c(cnn1C)CC2 [Ref. Ex. 1, 1-methyl-8-[(2-methylpyridin-3-yl)oxy]-4,5-dihydro-1H-thieno[3,4-g]indazole-6-carboxamide]
cell number (number of nucleus/visual field) ([1]; compound 0.1 nM): 303 ± 28
lipid droplet area (lipid droplet stained area/cell number) ([1]; compound 0.1 nM): 9625
cell number (number of nucleus/visual field) ([1]; compound 1 nM): 295 ± 15
lipid droplet area (lipid droplet stained area/cell number) ([1]; compound 1 nM): 5703
cell number (number of nucleus/visual field) ([1]; compound 10 nM): 318 ± 9
lipid droplet area (lipid droplet stained area/cell number) ([1]; compound 10 nM): 2010
cell number (in words) ([1]; adipocyte differentiation): without affecting
intracellular lipid accumulation (in words) ([1]; adipocyte differentiation): decreased
average amount of ingestion ([2]; 0.01 mg/kg oral): 3.7 ± 0.2 g/day
body weight (g) change ([2]; 0.01 mg/kg oral): 3.0 ± 1.2 g
body weight ([2]; 0.01 mg/kg oral, Day 0): 40.9 ± 2.5 g
glycated hemoglobin (%) ([2]; 0.01 mg/kg oral, Day 0): 4.5 ± 0.2%
plasma adiponectin (μg/dL)) ([2]; 0.01 mg/kg oral, Day 0): 15.9 ± 3.4 µg/dL
plasma glucose ([2]; 0.01 mg/kg oral, Day 0): 178.1 ± 26.5 mg/dL
plasma insulin ([2]; 0.01 mg/kg oral, Day 0): 4.2 ± 2.0 ng/mL
plasma leptin (mg/dL) ([2]; 0.01 mg/kg oral, Day 0): 54.2 ± 21.0
plasma neutral fats ([2]; 0.01 mg/kg oral, Day 0): 73.4 ± 15.1 mg/dL
plasma total cholesterol ([2]; 0.01 mg/kg oral, Day 0): 222.1 ± 45.4 mg/dL
glycated hemoglobin (%) ([2]; 0.01 mg/kg oral, Day 14): 4.0 ± 0.3 %
plasma adiponectin (μg/dL)) ([2]; 0.01 mg/kg oral, Day 14): 15.5 ± 2.5 µg/dL
plasma glucose ([2]; 0.01 mg/kg oral, Day 14): 156.0 ± 23.4 mg/dL
plasma insulin ([2]; 0.01 mg/kg oral, Day 14): 6.2 ± 5.8 ng/mL
plasma leptin (mg/dL) ([2]; 0.01 mg/kg oral, Day 14): 71.2 ± 22.0
plasma neutral fats ([2]; 0.01 mg/kg oral, Day 14): 59.4 ± 18.5 mg/dL
plasma total cholesterol ([2]; 0.01 mg/kg oral, Day 14): 182.6 ± 19.5 mg/dL
glycated hemoglobin (%) ([2]; 0.01 mg/kg oral, Day 28): 3.8 ± 0.4%
plasma adiponectin (μg/dL)) ([2]; 0.01 mg/kg oral, Day 28): 14.7 ± 2.9 µg/dL
plasma glucose ([2]; 0.01 mg/kg oral, Day 28): 162.9 ± 24.4 mg/dL
plasma insulin ([2]; 0.01 mg/kg oral, Day 28): 5.4 ± 3.9 ng/mL
plasma leptin (mg/dL) ([2]; 0.01 mg/kg oral, Day 28): 81.8 ± 23.9
plasma neutral fats ([2]; 0.01 mg/kg oral, Day 28): 45.5 ± 14.1 mg/dL
plasma total cholesterol ([2]; 0.01 mg/kg oral, Day 28): 187.2 ± 15.9 mg/dL
body weight ([2]; 0.01 mg/kg oral, Day 37): 44.9 ± 2.6 g
epididymal fat mass ([2]; 0.01 mg/kg oral): 0.91 ± 0.26 g
gastrocnemius muscle weight (g/100 g body weight) ([2]; 0.01 mg/kg oral): 0.373 ± 0.030 g/100 g body weight
hepatocyte weight ([2]; 0.01 mg/kg oral): 1.81 ± 0.23 g
mesenteric fat mass ([2]; 0.01 mg/kg oral): 0.87 ± 0.17 g
average amount of ingestion ([2]; 0.03 mg/kg oral): 3.2 ± 0.2 g/day
body weight (g) change ([2]; 0.03 mg/kg oral): -0.2 ± 0.9 g
body weight ([2]; 0.03 mg/kg oral, Day 0): 40.9 ± 2.2 g
glycated hemoglobin (%) ([2]; 0.03 mg/kg oral, Day 0): 4.5 ± 0.1%
plasma adiponectin (μg/dL)) ([2]; 0.03 mg/kg oral, Day 0): 18.0 ± 4.0 µg/dL
plasma glucose ([2]; 0.03 mg/kg oral, Day 0): 178.5 ± 27.8 mg/dL
plasma insulin ([2]; 0.03 mg/kg oral, Day 0): 6.0 ± 3.7 ng/mL
plasma leptin (mg/dL) ([2]; 0.03 mg/kg oral, Day 0): 70.3 ± 19.6
plasma neutral fats ([2]; 0.03 mg/kg oral, Day 0): 72.3 ± 34.0 mg/dL
plasma total cholesterol ([2]; 0.03 mg/kg oral, Day 0): 238.2 ± 19.0 mg/dL
glycated hemoglobin (%) ([2]; 0.03 mg/kg oral, Day 14): 4.1 ± 0.1 %
plasma adiponectin (μg/dL)) ([2]; 0.03 mg/kg oral, Day 14): 19.5 ± 3.1 µg/dL
plasma glucose ([2]; 0.03 mg/kg oral, Day 14): 154.9 ± 12.1 mg/dL
plasma insulin ([2]; 0.03 mg/kg oral, Day 14): 3.5 ± 2.1 ng/mL
plasma leptin (mg/dL) ([2]; 0.03 mg/kg oral, Day 14): 54.7 ± 19.0
plasma neutral fats ([2]; 0.03 mg/kg oral, Day 14): 50.9 ± 14.7 mg/dL
plasma total cholesterol ([2]; 0.03 mg/kg oral, Day 14): 165.6 ± 11.3 mg/dL
glycated hemoglobin (%) ([2]; 0.03 mg/kg oral, Day 28): 4.1 ± 0.1%
plasma adiponectin (μg/dL)) ([2]; 0.03 mg/kg oral, Day 28): 16.4 ± 3.8 µg/dL
plasma glucose ([2]; 0.03 mg/kg oral, Day 28): 167.0 ± 20.4 mg/dL
plasma insulin ([2]; 0.03 mg/kg oral, Day 28): 2.7 ± 0.8 ng/mL
plasma leptin (mg/dL) ([2]; 0.03 mg/kg oral, Day 28): 62.4 ± 18.1
plasma neutral fats ([2]; 0.03 mg/kg oral, Day 28): 54.4 ± 19.8 mg/dL
plasma total cholesterol ([2]; 0.03 mg/kg oral, Day 28): 170.3 ± 13.5 mg/dL
body weight ([2]; 0.03 mg/kg oral, Day 37): 41.0 ± 2.3 g
epididymal fat mass ([2]; 0.03 mg/kg oral): 0.72 ± 0.05 g
gastrocnemius muscle weight (g/100 g body weight) ([2]; 0.03 mg/kg oral): 0.407 ± 0.017 g/100 g body weight
hepatocyte weight ([2]; 0.03 mg/kg oral): 1.56 ± 0.11 g
mesenteric fat mass ([2]; 0.03 mg/kg oral): 0.57 ± 0.11 g
average amount of ingestion ([2]; 0.1 mg/kg oral): 2.7 ± 0.3 g/day
body weight (g) change ([2]; 0.1 mg/kg oral): -4.1 ± 0.7 g
body weight ([2]; 0.1 mg/kg oral, Day 0): 38.8 ± 3.5 g
glycated hemoglobin (%) ([2]; 0.1 mg/kg oral, Day 0): 4.5 ± 0.2%
plasma adiponectin (μg/dL)) ([2]; 0.1 mg/kg oral, Day 0): 16.8 ± 5.7 µg/dL
plasma glucose ([2]; 0.1 mg/kg oral, Day 0): 183.9 ± 35.2 mg/dL
plasma insulin ([2]; 0.1 mg/kg oral, Day 0): 4.3 ± 1.8 ng/mL
plasma leptin (mg/dL) ([2]; 0.1 mg/kg oral, Day 0): 55.7 ± 15.4
plasma neutral fats ([2]; 0.1 mg/kg oral, Day 0): 63.2 ± 9.1 mg/dL
plasma total cholesterol ([2]; 0.1 mg/kg oral, Day 0): 218.2 ± 19.0 mg/dL
glycated hemoglobin (%) ([2]; 0.1 mg/kg oral, Day 14): 4.0 ± 0.2 %
plasma adiponectin (μg/dL)) ([2]; 0.1 mg/kg oral, Day 14): 22.8 ± 3.8 µg/dL
plasma glucose ([2]; 0.1 mg/kg oral, Day 14): 159.6 ± 26.7 mg/dL
plasma insulin ([2]; 0.1 mg/kg oral, Day 14): 1.4 ± 0.6 ng/mL
plasma leptin (mg/dL) ([2]; 0.1 mg/kg oral, Day 14): 27.4 ± 19.1
plasma neutral fats ([2]; 0.1 mg/kg oral, Day 14): 25.2 ± 7.6 mg/dL
plasma total cholesterol ([2]; 0.1 mg/kg oral, Day 14): 129.1 ± 15.4 mg/dL
glycated hemoglobin (%) ([2]; 0.1 mg/kg oral, Day 28): 3.8 ± 0.2 %
plasma adiponectin (μg/dL)) ([2]; 0.1 mg/kg oral, Day 28): 19.2 ± 2.9 µg/dL
plasma glucose ([2]; 0.1 mg/kg oral, Day 28): 138.6 ± 17.3 mg/dL
plasma insulin ([2]; 0.1 mg/kg oral, Day 28): 1.4 ± 0.6 ng/mL
plasma leptin (mg/dL) ([2]; 0.1 mg/kg oral, Day 28): 29.2 ± 20.0
plasma neutral fats ([2]; 0.1 mg/kg oral, Day 28): 34.7 ± 12.5 mg/dL
plasma total cholesterol ([2]; 0.1 mg/kg oral, Day 28): 135.1 ± 15.4 mg/dL
body weight ([2]; 0.1 mg/kg oral, Day 37): 35.6 ± 3.9 g
epididymal fat mass ([2]; 0.1 mg/kg oral): 0.47 ± 0.10 g
gastrocnemius muscle weight (g/100 g body weight) ([2]; 0.1 mg/kg oral): 0.468 ± 0.033 g/100 g body weight
hepatocyte weight ([2]; 0.1 mg/kg oral): 1.37 ± 0.24 g
mesenteric fat mass ([2]; 0.1 mg/kg oral): 0.30 ± 0.08 g
body weight (in words) ([2]; obese mouse model fed with a high-fat diet): clear body weight decreasing action
glucose AUC0-120 min ([3]; 0.01 mg/kg/day in mixed feed): 241.0 mg·h/dL
glucose AUC0-120 min (mg h/dL) ([3]; 0.03 mg/kg/day in mixed feed): 184.7* mg h/dL
glucose AUC0-120 min (mg h/dL) ([3]; 0.09 mg/kg/day in mixed feed): 182.5* mg h/dL
